{"source": "ChEMBL document CHEMBL3997790", "about": "“The oxidative induction of DNA lesions in cancer cells by 5-thio-d-glucose and 6-thio-d-fructopyranose and their genotoxic effects. Part 3” (Bioorg Med Chem Lett, 2017)", "key": {"HeLa [1]": {"tested_on": "HeLa", "assay": "Induction of ROS production in human HeLa cells at 0.2 mM after 24 hrs by H2DCFDA probe based fluorescence assay", "type": "functional, cell-based"}, "HeLa [2]": {"tested_on": "HeLa", "assay": "Upregulation of FHL2 mRNA expression in human HeLa cells at 0.5 mM after 1 hr by qRT-PCR method", "type": "functional, cell-based"}, "HeLa [3]": {"tested_on": "HeLa", "assay": "Geno-toxicity in human HeLa cells assessed as induction of DNA damage at 0.2 mM by alkaline comet assay", "type": "functional, cell-based", "details": "TDE = time-dependent effect"}, "HeLa [4]": {"tested_on": "HeLa", "assay": "Geno-toxicity in human HeLa cells assessed as induction of DNA damage at 0.2 mM at 4 degC by alkaline comet assay", "type": "functional, cell-based"}, "HeLa [5]": {"tested_on": "HeLa", "assay": "Induction of DNA damage in human HeLa cells assessed as increase in oxidative DNA lesions by measuring oxidized purines at 0.1 mM preincubated for 1 hr followed by human 8-oxoguanine DNA N-glycosylase1 addition measured after 30 mins by alkaline comet assay", "type": "functional, cell-based"}, "HeLa [6]": {"tested_on": "HeLa", "assay": "Down regulation of NCOA7 mRNA expression in human HeLa cells at 0.5 mM after 1 hr by qRT-PCR method", "type": "functional, cell-based"}, "HeLa [7]": {"tested_on": "HeLa", "assay": "Induction of oxidative DNA damage in human HeLa cells at 0.19 to 0.76 mM in presence of PBN spin trap after 1 hr by alkaline comet assay", "type": "functional, cell-based"}, "HeLa [8]": {"tested_on": "HeLa", "assay": "Induction of mitochondrial membrane depolarization in human HeLa cells at 0.5 mM by JC-1 staining based flow cytometry", "type": "functional, cell-based"}, "HeLa [9]": {"tested_on": "HeLa", "assay": "Cytotoxicity against human HeLa cells assessed as decrease in cell viability at 0.5 mM in presence of 5 mM glucose after 14 hrs by WST-8 based CCK-8 assay", "type": "functional"}, "HeLa [10]": {"tested_on": "HeLa", "assay": "Induction of DNA damage in human HeLa cells at 0.1 mM in presence of antioxidant epikatehin after 1 hr by alkaline comet assay", "type": "functional, cell-based"}, "HeLa [11]": {"tested_on": "HeLa", "assay": "Induction of DNA damage in human HeLa cells assessed as increase in oxidative DNA lesions by measuring oxidized pyrimidines at 0.1 mM preincubated for 1 hr followed by endonuclease3 addition measured after 30 mins by alkaline comet assay", "type": "functional, cell-based"}, "HeLa [12]": {"tested_on": "HeLa", "assay": "Geno-toxicity in human HeLa cells assessed as induction of DNA damage at 0.5 mM in presence of 5 mM glucose after 1 hr by alkaline comet assay", "type": "functional, cell-based"}, "[13]": {"tested_on": "Escherichia coli DH5[alpha]", "assay": "Induction of DNA damage in Escherichia coli DH5alpha supercoiled pUC19 DNA assessed as decrease in covalently closed circular DNA forms at 0.1 to 1 mM by ethidium bromide staining based agarose gel electrophoresis"}, "HeLa [14]": {"tested_on": "HeLa", "assay": "Upregulation of NOX5 mRNA expression in human HeLa cells at 0.5 mM after 1 hr by qRT-PCR method", "type": "functional, cell-based"}, "HeLa [15]": {"tested_on": "HeLa", "assay": "Geno-toxicity in human HeLa cells assessed as induction of DNA damage at 0.2 mM at 37 degC by alkaline comet assay", "type": "functional, cell-based"}, "HeLa [16]": {"tested_on": "HeLa", "assay": "Induction of DNA damage in human HeLa cells assessed as increase in oxidative DNA lesions by measuring oxidized purines at 0.1 mM preincubated for 1 hr followed by formamidopyrimidine DNA glycosylase addition measured after 30 mins by alkaline comet assay", "type": "functional, cell-based"}, "HeLa [17]": {"tested_on": "HeLa", "assay": "Induction of apoptosis in human HeLa cells at 0.5 mM after 4 hrs by Annexin-V-FITC/PI staining based flow cytometry", "type": "functional, cell-based"}, "HeLa [18]": {"tested_on": "HeLa", "assay": "Geno-toxicity in human HeLa cells assessed as induction of DNA damage at pH 12.1 after 1 hr by comet assay", "type": "functional, cell-based"}, "HeLa [19]": {"tested_on": "HeLa", "assay": "Geno-toxicity in human HeLa cells assessed as induction of DNA damage by measuring double stranded DNA breaks at 0.19 to 0.76 mM after 1 hr by neutral comet assay", "type": "functional, cell-based"}, "[20]": {"tested_on": "Escherichia coli DH5[alpha]", "assay": "Induction of DNA damage in Escherichia coli DH5alpha supercoiled pUC19 DNA assessed as increase in open circular forms at 0.1 to 1 mM by ethidium bromide staining based agarose gel electrophoresis"}, "HeLa [21]": {"tested_on": "HeLa", "assay": "Geno-toxicity in human HeLa cells assessed as induction of DNA damage after 1 hr by alkaline comet assay", "type": "functional, cell-based"}, "HeLa [22]": {"tested_on": "HeLa", "assay": "Induction of DNA damage in human HeLa cells at 0.1 mM in presence of antioxidant vitamin E after 1 hr by alkaline comet assay", "type": "functional, cell-based"}, "[23]": {"tested_on": "Escherichia coli DH5[alpha]", "assay": "Induction of DNA damage in Escherichia coli DH5alpha supercoiled pUC19 DNA assessed as increase in linear DNA forms at 0.1 to 1 mM by ethidium bromide staining based agarose gel electrophoresis"}, "HeLa [24]": {"tested_on": "HeLa", "assay": "Geno-toxicity in human HeLa cells assessed as induction of DNA damage at 0.1 mM by alkaline comet assay", "type": "functional, cell-based", "details": "TDE = time-dependent effect"}, "HeLa [25]": {"tested_on": "HeLa", "assay": "Geno-toxicity in human HeLa cells assessed as induction of DNA damage at 0.1 mM at 37 degC by alkaline comet assay", "type": "functional, cell-based"}, "HeLa [26]": {"tested_on": "HeLa", "assay": "Cytotoxicity against human HeLa cells assessed as decrease in cell viability at 0.6 mM in presence of 5 mM glucose after 14 hrs by WST-8 based CCK-8 assay", "type": "functional"}, "HeLa [27]": {"tested_on": "HeLa", "assay": "Induction of ROS production in human HeLa cells at 0.1 mM after 24 hrs by H2DCFDA probe based fluorescence assay", "type": "functional, cell-based"}, "HeLa [28]": {"tested_on": "HeLa", "assay": "Geno-toxicity in human HeLa cells assessed as induction of DNA damage at 0.1 mM at 4 degC by alkaline comet assay", "type": "functional, cell-based"}, "HeLa [29]": {"tested_on": "HeLa", "assay": "Geno-toxicity in human HeLa cells assessed as induction of DNA damage by measuring double stranded DNA breaks at 0.02 to 0.5 mM after 1 hr by neutral comet assay", "type": "functional, cell-based"}, "HeLa [30]": {"tested_on": "HeLa", "assay": "Induction of oxidative DNA damage in human HeLa cells at 0.05 to 0.5 mM in presence of PBN spin trap after 1 hr by alkaline comet assay", "type": "functional, cell-based"}, "HeLa [31]": {"tested_on": "HeLa", "assay": "Geno-toxicity in human HeLa cells assessed as induction of DNA damage at 0.6 mM in presence of 5 mM glucose after 1 hr by alkaline comet assay", "type": "functional, cell-based"}}, "note": "Activity calls are given as the source filed them. No cut-off for these calls is given here.", "data": [{"compound": "OC[C@@]1(O)SC[C@@H](O)[C@@H](O)[C@@H]1O", "values": [{"measurement": "Activity", "setting": "HeLa [1]", "result": "Active"}, {"measurement": "Activity", "setting": "HeLa [2]", "result": "Active"}, {"measurement": "Activity", "setting": "HeLa [3]", "result": "Tde"}, {"measurement": "Activity", "setting": "HeLa [4]", "result": "Active"}, {"measurement": "Activity", "setting": "HeLa [5]", "result": "Active"}, {"measurement": "Activity", "setting": "HeLa [6]", "result": "Active"}, {"measurement": "Activity", "setting": "HeLa [7]", "result": "inactive"}, {"measurement": "Activity", "setting": "HeLa [8]", "result": "inactive"}, {"measurement": "Activity", "setting": "HeLa [9]", "result": "Active"}, {"measurement": "Activity", "setting": "HeLa [10]", "result": "inactive"}, {"measurement": "Activity", "setting": "HeLa [11]", "result": "Active"}, {"measurement": "Activity", "setting": "HeLa [12]", "result": "Active"}, {"measurement": "Activity", "setting": "[13]", "result": "inactive"}, {"measurement": "Activity", "setting": "HeLa [14]", "result": "Active"}, {"measurement": "Activity", "setting": "HeLa [15]", "result": "inactive"}, {"measurement": "Activity", "setting": "HeLa [16]", "result": "Active"}, {"measurement": "Activity", "setting": "HeLa [17]", "result": "inactive"}, {"measurement": "Activity", "setting": "HeLa [18]", "result": "Dose-dependent effect"}, {"measurement": "Activity", "setting": "HeLa [19]", "result": "inactive"}, {"measurement": "Activity", "setting": "[20]", "result": "inactive"}, {"measurement": "Activity", "setting": "HeLa [21]", "result": "Dose-dependent effect"}, {"measurement": "Activity", "setting": "HeLa [22]", "result": "inactive"}, {"measurement": "Activity", "setting": "[23]", "result": "inactive"}]}, {"compound": "OC[C@H]1SC(O)[C@H](O)[C@@H](O)[C@@H]1O", "note": "(stereo partly specified)", "values": [{"measurement": "Activity", "setting": "HeLa [2]", "result": "Active"}, {"measurement": "Activity", "setting": "HeLa [5]", "result": "Active"}, {"measurement": "Activity", "setting": "HeLa [6]", "result": "Active"}, {"measurement": "Activity", "setting": "HeLa [24]", "result": "Tde"}, {"measurement": "Activity", "setting": "HeLa [25]", "result": "inactive"}, {"measurement": "Activity", "setting": "HeLa [8]", "result": "inactive"}, {"measurement": "Activity", "setting": "HeLa [10]", "result": "inactive"}, {"measurement": "Activity", "setting": "HeLa [11]", "result": "Active"}, {"measurement": "Activity", "setting": "HeLa [26]", "result": "Active"}, {"measurement": "Activity", "setting": "HeLa [27]", "result": "Active"}, {"measurement": "Activity", "setting": "[13]", "result": "inactive"}, {"measurement": "Activity", "setting": "HeLa [14]", "result": "Active"}, {"measurement": "Activity", "setting": "HeLa [28]", "result": "Active"}, {"measurement": "Activity", "setting": "HeLa [16]", "result": "Active"}, {"measurement": "Activity", "setting": "HeLa [17]", "result": "inactive"}, {"measurement": "Activity", "setting": "HeLa [29]", "result": "inactive"}, {"measurement": "Activity", "setting": "HeLa [18]", "result": "Dose-dependent effect"}, {"measurement": "Activity", "setting": "[20]", "result": "inactive"}, {"measurement": "Activity", "setting": "HeLa [21]", "result": "Dose-dependent effect"}, {"measurement": "Activity", "setting": "HeLa [30]", "result": "inactive"}, {"measurement": "Activity", "setting": "HeLa [22]", "result": "inactive"}, {"measurement": "Activity", "setting": "HeLa [31]", "result": "Active"}, {"measurement": "Activity", "setting": "[23]", "result": "inactive"}]}]}
